What was measured:
L-363 cells = experiment: Antiproliferative activity on L-363 cells (CellTiter-Glo); assay type: cell-based; conditions: Homo sapiens, 72 hr treatment, averaged values
Method: (§1) Determination of Antiproliferative Activity on LP-1, L-363 and JJN-3 Cells
(§2) All compounds tested were dissolved in DMSO and further dilutions were made in culture medium. Final DMSO concentration was 0.3% (v/v) in cell proliferation assays. Viability was assessed using CellTiter-Glo cell viability assay kit (Promega). The human LP-1, L-363 and JJN-3 cells (DSMZ) were cultured in RPMI 1640 medium supplemented with 2 mM L-glutamine, and 10% fetal calf serum (PAA). Cells were routinely kept as suspension cells at 37° C. in a humidified 5% CO2 atmosphere. Cells were passaged at a seeding density of 0.2×10^6/ml twice a week. Cells were seeded in black tissue culture treated 96-well plates (Perkin Elmer). Densities used for plating ranged from 2,000 to 6,000 cells per well in a total volume of 75 μl medium. After twenty four hours, drugs and/or solvents were added (25 μl) to a final volume of 100 μl. Following 72 hr of treatment plates were removed from the incubator and allowed to equilibrate to room temperature for approx 10 min. 100 μl CellTiter-Glo reagent was added to each well that was then covered (Perkin Elmer Topseal) and shaken on plate shaker for 10 min. Luminescence was measured on a HTS Topcount (Perkin Elmer). Within an experiment, the results for each treatment were the mean of 2 replicate wells. For initial screening purposes, compounds were tested using a 9 point dilution curve (serial 1:3 dilutions). For each experiment, controls (containing no drug) and a blank incubation (containing cells read at the time of compound addition) were run in parallel. The blank value was subtracted from all control and sample values. For each sample, the mean value for cell growth (in relative light units) was expressed as a percentage of the mean value for cell growth of the control.

JJN-3 cells = experiment: Antiproliferative activity on JJN-3 cells (CellTiter-Glo); assay type: cell-based; conditions: Homo sapiens, 72 hr treatment, averaged values
Method: as §1, §2

[1] = molecular target: Recombinant Human NF-kappaB-Inducing Kinase (NIK/MAP3K14) (Homo sapiens (Human), UniProt Q99558); experiment: Inhibition of auto-phosphorylation of recombinant human NIK/MAP3K14 activity (AlphaScreen); assay type: biochemical; conditions: GST-tagged NIK/MAP3K14 0.2 nM, 25 microM ATP, 1 h at 25° C.; averaged over all measurements on all batches; read-out: Alpha-Screen IC50
Method: Inhibition of Auto-Phosphorylation of Recombinant Human NF-kappaB-Inducing Kinase (NIK/MAP3K14) Activity (AlphaScreen®)
NIK/MAP3K14 auto-phosphorylation activity was measured using the AlphaScreen® (αscreen) format (Perkin Elmer). All compounds tested were dissolved in dimethyl sulfoxide (DMSO) and further dilutions were made in assay buffer. Final DMSO concentration was 1% (v/v) in assays. Assay buffer was 50 mM Tris pH 7.5 containing 1 mM EGTA (ethylene glycol tetraacetic acid), 1 mM DTT (dithiothreitol), 0.1 mM Na3VO4, 5 mM MgCl2, 0.01% Tween® 20. Assays were carried out in 384 well Alphaplates (Perkin Elmer). Incubations consisted of compound, 25 microM Adenosine-5′-triphosphate (ATP), and 0.2 nM NIK/MAP3K14. Incubations were initiated by addition of GST-tagged NIK/MAP3K14 enzyme, carried out for 1 h at 25° C. and terminated by addition of stop buffer containing anti-phospho-IKK Ser176/180 antibody. Protein A Acceptor and Glutathione-Donor beads were added before reading using an EnVision® Multilabel Plate Reader (Perkin Elmer). Signal obtained in the wells containing blank samples was subtracted from all other wells and IC50's were determined by fitting a sigmoidal curve to % inhibition of control versus Log10 compound concentration.

LP-1 cells = experiment: Antiproliferative activity on LP-1 cells (CellTiter-Glo); assay type: cell-based; conditions: Homo sapiens, 72 hr treatment, averaged values
Method: as §1, §2

[2] = system: P-IKKα levels in L363 cells; experiment: Effect of compounds on P-IKKα levels in L363 cells; assay type: cell-based; conditions: Homo sapiens, L-363, BAFF stimulated, 2 hr treatment, Mesoscale sandwich immuno-assay, averaged values, read-out: IKKα Cellular IC50
Method: Effect of Compounds on P-IKKα Levels in L363 Cells
All compounds tested were dissolved in DMSO and further dilutions were made in culture medium. Final DMSO concentration was 1% (v/v) in cell assays. The human L363 cells (ATCC) were cultured in RPMI 1640 medium supplemented with GlutaMax and 10% fetal calf serum (PAA). Cells were routinely maintained at densities of 0.2×10^6 cells per ml—1×10^6 cells per ml at 37° C. in a humidified 5% CO2 atmosphere. Cells were passaged twice a week splitting back to obtain the low density. Cells were seeded in 96 well plates (Nunc 167008) at 2×10^6 per ml media in a volume of 75 μl per well plus 25 μl 1 μg/ml recombinant human B-cell activating factor (BAFF/BLyS/TNFSF13B). Seeded cells were incubated at 37° C. in a humidified 5% CO2 atmosphere for 24 hr. Drugs and/or solvents were added (20 μl) to a final volume of 120 μl. Following 2 hr treatment plates were removed from the incubator and cell lysis was achieved by the addition of 30 μl 5× lysis buffer followed by shaking on a plate shaker at 4° C. for 10 min. At the end of this incubation lysed cells were centrifuged at 800×g for 20 min at 4° C. and the lysate was assessed for P-IKKα levels by sandwich immuno-assay carried out in anti-rabbit antibody coated Mesoscale plates. Within an experiment, the results for each treatment were the mean of 2 replicate wells. […]

Recombinant Human NF-kappaB-Inducing Kinase (NIK/MAP3K14), sequence (Q99558 whole entry): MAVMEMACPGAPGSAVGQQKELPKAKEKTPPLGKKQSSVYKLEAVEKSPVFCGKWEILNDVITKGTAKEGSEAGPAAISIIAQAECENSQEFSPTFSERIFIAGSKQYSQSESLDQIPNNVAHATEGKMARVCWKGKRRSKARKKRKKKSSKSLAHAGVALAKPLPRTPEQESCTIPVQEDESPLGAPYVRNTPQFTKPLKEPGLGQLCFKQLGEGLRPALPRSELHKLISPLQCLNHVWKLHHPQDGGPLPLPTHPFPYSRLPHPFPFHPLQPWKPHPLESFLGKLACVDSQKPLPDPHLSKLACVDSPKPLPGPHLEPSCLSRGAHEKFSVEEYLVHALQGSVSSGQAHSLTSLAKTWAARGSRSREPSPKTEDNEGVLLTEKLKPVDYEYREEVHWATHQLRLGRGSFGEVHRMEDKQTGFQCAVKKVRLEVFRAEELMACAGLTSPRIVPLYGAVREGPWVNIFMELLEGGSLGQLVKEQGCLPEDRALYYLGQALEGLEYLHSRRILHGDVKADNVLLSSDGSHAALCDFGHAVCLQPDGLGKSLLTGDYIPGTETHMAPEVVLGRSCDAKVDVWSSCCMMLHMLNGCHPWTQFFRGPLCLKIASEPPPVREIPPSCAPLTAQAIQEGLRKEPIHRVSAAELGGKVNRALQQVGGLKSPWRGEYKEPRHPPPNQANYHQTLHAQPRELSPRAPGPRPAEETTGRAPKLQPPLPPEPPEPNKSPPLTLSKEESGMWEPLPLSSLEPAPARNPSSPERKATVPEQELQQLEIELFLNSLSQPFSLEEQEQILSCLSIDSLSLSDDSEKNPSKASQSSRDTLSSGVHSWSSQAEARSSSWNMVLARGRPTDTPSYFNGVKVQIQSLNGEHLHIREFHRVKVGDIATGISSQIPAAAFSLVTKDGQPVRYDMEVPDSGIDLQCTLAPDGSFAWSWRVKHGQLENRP

SMILES	IC50 [1]	IC50 [2]	EC50 (L-363 cells)	EC50 (JJN-3 cells)	EC50 (LP-1 cells)
[2H]C([2H])([2H])C(O)(C#Cc1cc2c(-c3nc(N)nc4cn(CC)nc34)cn(CCCOC)c2cc1F)C([2H])([2H])[2H] [Compound 4]	65 nM	–	69 nM	102 nM	244 nM
[2H]C([2H])([2H])C(O)(C#Cc1cc2c(-c3nc(N)nc4cn(CC)nc34)cn(C3CN(C4CC4)C3)c2cn1)C([2H])([2H])[2H] [Compound 12]	84 nM	–	140 nM	301 nM	877 nM
[2H]C([2H])([2H])C(O)(C#Cc1cc2c(-c3nc(N)nc4cn(CC)nc34)cn(C3CN(CC4CC4)C3)c2cn1)C([2H])([2H])[2H] [Compound 11]	143 nM	–	62 nM	158 nM	1180 nM
[2H]C([2H])([2H])n1cc2nc(N)nc(-c3cn(C4CCN(CC)C4)c4cc(F)c(C#CC(O)(C([2H])([2H])[2H])C([2H])([2H])[2H])cc34)c2n1 (stereo not shown) [Compound 5]	112 nM	–	52 nM	46 nM	128 nM
CCn1cc2nc(N)nc(-c3cn(C4CN(C5CC5)C4)c4cnc(C#CC(C)(O)C5CC5)cc34)c2n1 (stereo not shown) [Compound 10]	186 nM	–	241 nM	406 nM	788 nM
[2H]C([2H])([2H])C(O)(C#Cc1cc2c(-c3nc(N)nc4cn(CC)nc34)cn(C3CN(CC4CC4)C3)c2cc1F)C([2H])([2H])[2H] [Compound 7]	60 nM	–	53 nM	95 nM	202 nM
CCn1cc2nc(N)nc(-c3cn(CCCOC)c4cc(F)c(C#CC(C)(O)C5CC5)cc34)c2n1 (stereo not shown) [Compound 3]	992 nM	–	246 nM	182 nM	845 nM

These reach a lower IC50 [1]. Values come first.

IC50 [1]	IC50 [2]	SMILES	EC50 (L-363 cells)	EC50 (JJN-3 cells)	EC50 (LP-1 cells)
38 nM	–	COCCCn1cc(-c2nc(N)nc3cn(C4CC4)nc23)c2cc(C#CC(C)(O)C3CC3)ncc21 (stereo not shown) [Compound 8]	76 nM	78 nM	402 nM
46 nM	–	COCCCn1cc(-c2nc(N)nc3cn(C)nc23)c2cc(C#CC(C)(C)O)ncc21 [Compound 1]	655 nM	538 nM	6780 nM
37 nM	–	[2H]C([2H])([2H])C(O)(C#Cc1cc2c(-c3nc(N)nc4cn(CC)nc34)cn(C3CCN(CC)C3)c2cc1F)C([2H])([2H])[2H] (stereo not shown) [Compound 6]	38 nM	40 nM	70 nM
52 nM	–	CCn1cc2nc(N)nc(-c3cn(CCCOC)c4cnc(C#CC(C)(O)C5CC5)cc34)c2n1 (stereo not shown) [Compound 9]	162 nM	217 nM	629 nM
23 nM	103 nM	COCCCn1cc(-c2nc(N)nc3cn(C)nc23)c2cc(C#CC(C)(O)C3CC3)ncc21 (stereo not shown) [Compound 2]	386 nM	358 nM	2960 nM
